Assay: recombinant UMI read abundance after kanamycin selection (control-corrected) (log10(CPM+1)); higher = more efficient recombination; extreme values may be limits of the assay; sequences stand for … in AGTGCAGAGAAAATCGGCCAGTTTTCTCTGCCTGCAGTCCGCATGCCGTGGGACCCCTTGGGTTCTAACCTGTTGCCTAGATTTATGCAGCGGACTGCCTTTCTCCCAAAGTGATAAACCGG…AGGTTGGTTTCACT; site = the 11-nt donor
In short: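 Two replicates each of selected and unselected plating were used in this pooled Escherichia coli screen of donor and donor-binding-loop pairs for the IS621 bridge recombinase. Selection was with IPTG (0.07 mM) and kanamycin. Counts of recombinant UMIs, amplified across the donor–target junction, were converted to CPM, averaged, scaled by control-derived factors and reported as log10(CPM+1).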
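Further: IS621 bridge recombinase in Escherichia coli cells against a fixed T5 target plasmid.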

| Sequence | recombinant UMI read abundance (log10) |
| --- | --- |
| GGTCCAACATGGACCGGTTTTCCCGGTAATCCGTATTTGAA (site GGTCCAACTTT) | 0.0109 |
| GGTCCAACATGGACCGGTTTTCCCGGTAATCCGTATTTGTT (site GGTCCAACTAA) | 0.0107 |
| GGTCCAACATGGACCGGTTTTCCCGGTAATCCGTATTTGTT (site GGTCCAACTCA) | 0.0106 |
| GGTCCAACATGGACCGGTTTTCCCGGTAATCCGTATTTGTT (site GGTCCAACTGA) | 0.00734 |
| GGTCCAACATGGACCGGTTTTCCCGGTAATCCGTATTTGTT (site GGTCCAACTTA) | 0.0123 |
| GGTCCGACATGGACCGGTTTTCCCGGTAATCCGTATTTGTA (site GGTCCAACTTA) | 0.0275 |
| GGTCCGACATGGACCGGTTTTCCCGGTAATCCGTATTTGTA (site GGTCCCACTTA) | 0.00256 |
| GGTCCGACATGGACCGGTTTTCCCGGTAATCCGTATTTGTA (site GGTCCGACTTA) | 0.0268 |
| GGTCCGACATGGACCGGTTTTCCCGGTAATCCGTATTTGTA (site GGTCCTACTTA) | 0.0182 |
| GGTCCGGCATGGACCGGTTTTCCCGGTAATCCGTATTTGTC (site GGTCCGGCTGA) | 0 |
| GGTCCTACATGGACCGGTTTTCCCGGTAATCCGTATTTGTA (site GGTCCAACTTA) | 0.00723 |
| GGTCCTACATGGACCGGTTTTCCCGGTAATCCGTATTTGTA (site GGTCCCACTTA) | 0.0198 |
| GGTCCTACATGGACCGGTTTTCCCGGTAATCCGTATTTGTA (site GGTCCGACTTA) | 0.0128 |
| GGTCCTACATGGACCGGTTTTCCCGGTAATCCGTATTTGTA (site GGTCCTACTTA) | 0.0187 |
| GGTCCTCCATGGACCGGTTTTCCCGGTAATCCGTATTTGTT (site GGTCCTCCTAA) | 0.025 |
| GGTCGAGCATGGACCGGTTTTCCCGGTAATCCGTATTTGCA (site GATCGAGCTTG) | 0.273 |
| GGTCGAGCATGGACCGGTTTTCCCGGTAATCCGTATTTGCA (site GCTCGAGCTTG) | 0.0115 |
| GGTCGAGCATGGACCGGTTTTCCCGGTAATCCGTATTTGCA (site GGTCGAGCTTG) | 1.83 |
| GGTCGAGCATGGACCGGTTTTCCCGGTAATCCGTATTTGCA (site GTTCGAGCTTG) | 0.824 |
| GGTCGCTCATGGACCGGTTTTCCCGGTAATCCGTATTTGCT (site GGTCGCTCTAG) | 0.782 |
| GGTCGGCCATGGACCGGTTTTCCCGGTAATCCGTATTTGAA (site GGTCGGCCTTT) | 0 |
| GGTGAGCCATGGACCGGTTTTCCCGGTAATCCGTATTTGGG (site GGTGAGCCTCC) | 0.0257 |
| GGTGCATCATGGACCGGTTTTCCCGGTAATCCGTATTTGCT (site GGTGCATCTAG) | 1.92 |
| GGTGCCCCATGGACCGGTTTTCCCGGTAATCCGTATTTGAC (site GGTGCCCCTGT) | 0 |
| GGTGGAACATGGACCGGTTTTCCCGGTAATCCGTATTTGTT (site AGTGGAACTAA) | 0.371 |

| Sequence | recombinant UMI read abundance (log10) |
| --- | --- |
| GGTGGAACATGGACCGGTTTTCCCGGTAATCCGTATTTGTT (site CGTGGAACTAA) | 0.00196 |
| GGTGGAACATGGACCGGTTTTCCCGGTAATCCGTATTTGTT (site GGTGGAACTAA) | 0.746 |
| GGTGGAACATGGACCGGTTTTCCCGGTAATCCGTATTTGTT (site TGTGGAACTAA) | 0.00382 |
| GGTGTGCCATGGACCGGTTTTCCCGGTAATCCGTATTTGAC (site GGTGTGCCTGT) | 0 |
| GGTTACTCATGGACCGGTTTTCCCGGTAATCCGTATTTGGA (site GGTTACTCTTC) | 1.18 |
| GGTTAGACATGGACCGGTTTTCCCGGTAATCCGTATTTGAG (site AGTTAGACTCT) | 0.498 |
| GGTTAGACATGGACCGGTTTTCCCGGTAATCCGTATTTGAG (site CGTTAGACTCT) | 0.202 |
| GGTTAGACATGGACCGGTTTTCCCGGTAATCCGTATTTGAG (site GGTTAGACTCT) | 1.12 |
| GGTTAGACATGGACCGGTTTTCCCGGTAATCCGTATTTGAG (site TGTTAGACTCT) | 0.194 |
| GGTTGGACATGGACCGGTTTTCCCGGTAATCCGTATTTGAC (site GATTGGACTGT) | 0 |
| GGTTGGACATGGACCGGTTTTCCCGGTAATCCGTATTTGAC (site GCTTGGACTGT) | 0 |
| GGTTGGACATGGACCGGTTTTCCCGGTAATCCGTATTTGAC (site GGTTGGACTGT) | 1.49 |
| GGTTGGACATGGACCGGTTTTCCCGGTAATCCGTATTTGAC (site GTTTGGACTGT) | 0 |
| GGTTTATCATGGACCGGTTTTCCCGGTAATCCGTATTTGAC (site GGTTTATCTGT) | 0.699 |
| GTAAACCCATGGACCGGTTTTCCCGGTAATCCGTATTTGAT (site GTAAACCCTAT) | 1.45 |
| GTAAGATCATGGACCGGTTTTCCCGGTAATCCGTATTTGGC (site GTAAGATCTGC) | 2.74 |
| GTAAGCACATGGACCGGTTTTCCCGGTAATCCGTATTTGTA (site GTAAGCACTTA) | 2.03 |
| GTAAGCACATGGACCGGTTTTCCCGGTAATCCGTATTTGTA (site GTACGCACTTA) | 0.0491 |
| GTAAGCACATGGACCGGTTTTCCCGGTAATCCGTATTTGTA (site GTAGGCACTTA) | 0.614 |
| GTAAGCACATGGACCGGTTTTCCCGGTAATCCGTATTTGTA (site GTATGCACTTA) | 0.495 |
| GTAAGGCCATGGACCGGTTTTCCCGGTAATCCGTATTTGAC (site ATAAGGCCTGT) | 0 |
| GTAAGGCCATGGACCGGTTTTCCCGGTAATCCGTATTTGAC (site CTAAGGCCTGT) | 0 |
| GTAAGGCCATGGACCGGTTTTCCCGGTAATCCGTATTTGAC (site GTAAGGCCTGT) | 0 |
| GTAAGGCCATGGACCGGTTTTCCCGGTAATCCGTATTTGAC (site TTAAGGCCTGT) | 0 |
| GTAATCTCATGGACCGGTTTTCCCGGTAATCCGTATTTGAC (site GTAATCTCTGT) | 2.51 |

| Sequence | recombinant UMI read abundance (log10) |
| --- | --- |
| GTAATTGCATGGACCGGTTTTCCCGGTAATCCGTATTTGTA (site GTAATTGCTTA) | 2.57 |
| GTACAGTCATGGACCGGTTTTCCCGGTAATCCGTATTTGAT (site GTACAGTCTAT) | 2.73 |
| GTACGAGCATGGACCGGTTTTCCCGGTAATCCGTATTTGTG (site GTACGAGCTCA) | 1.39 |
| GTACTATCATGGACCGGTTTTCCCGGTAATCCGTATTTGGC (site GTACTATCTGC) | 3.19 |
| GTACTTCCATGGACCGGTTTTCCCGGTAATCCGTATTTGTC (site GTACTTCCTGA) | 1.93 |
| GTAGAACCATGGACCGGTTTTCCCGGTAATCCGTATTTGCA (site GTAGAACCTTG) | 0 |
| GTAGAGGCATGGACCGGTTTTCCCGGTAATCCGTATTTGTG (site GTAGAGGCTCA) | 1.58 |
| GTAGAGGCATGGACCGGTTTTCCCGGTAATCCGTATTTGTG (site GTCGAGGCTCA) | 0.361 |
| GTAGAGGCATGGACCGGTTTTCCCGGTAATCCGTATTTGTG (site GTGGAGGCTCA) | 0.704 |
| GTAGAGGCATGGACCGGTTTTCCCGGTAATCCGTATTTGTG (site GTTGAGGCTCA) | 0.247 |
| GTAGCAACATGGACCGGTTTTCCCGGTAATCCGTATTTGTA (site GTAGCAACTTA) | 2.18 |
| GTAGGCTCATGGACCGGTTTTCCCGGTAATCCGTATTTGTG (site GTAGGCTCTCA) | 1.4 |
| GTAGGGGCATGGACCGGTTTTCCCGGTAATCCGTATTTGAA (site GTAGGGGCTTT) | 1.18 |
| GTAGTCCCATGGACCGGTTTTCCCGGTAATCCGTATTTGCG (site GTAGTCACTCG) | 0.251 |
| GTAGTCCCATGGACCGGTTTTCCCGGTAATCCGTATTTGCG (site GTAGTCCCTCG) | 0.791 |
| GTAGTCCCATGGACCGGTTTTCCCGGTAATCCGTATTTGCG (site GTAGTCGCTCG) | 0.16 |
| GTAGTCCCATGGACCGGTTTTCCCGGTAATCCGTATTTGCG (site GTAGTCTCTCG) | 2.33 |
| GTAGTCCCATGGACCGGTTTTCCCGGTAATCCGTATTTGGT (site GTAGTCCCTAC) | 0.588 |
| GTAGTCGCATGGACCGGTTTTCCCGGTAATCCGTATTTGCT (site GTAGTCGCTAG) | 2.87 |
| GTAGTCGCATGGACCGGTTTTCCCGGTAATCCGTATTTGCT (site GTAGTCGCTCG) | 1.77 |
| GTAGTCGCATGGACCGGTTTTCCCGGTAATCCGTATTTGCT (site GTAGTCGCTGG) | 2.09 |
| GTAGTCGCATGGACCGGTTTTCCCGGTAATCCGTATTTGCT (site GTAGTCGCTTG) | 1.57 |
| GTAGTCGCATGGACCGGTTTTCCCGGTAATCCGTATTTGGG (site GTAGTCGCTCA) | 0.214 |
| GTAGTCGCATGGACCGGTTTTCCCGGTAATCCGTATTTGGG (site GTAGTCGCTCC) | 0.132 |
| GTAGTCGCATGGACCGGTTTTCCCGGTAATCCGTATTTGGG (site GTAGTCGCTCG) | 0.0493 |
